“Also recorded” adds a separate entry of the source. Like-named read-outs stand apart in the source and are kept apart here.
How the values were obtained:
sigma receptor [1] = test: (+)[3H]3-PPP saturation binding, guinea pig brain membranes
Description: For radioreceptor assays aliquots of the frozen membrane suspension were thawed and diluted tenfold with 50 nM Tris/HCl buffer, pH 7.4. […] The protein concentration in the 1 ml final incubation volume was 800 ug, corresponding to 32 mg of brain tissue (original wet weight). […] After incubation for 90 minutes at room temperature the membrane suspension was rapidly filtered under vacuum through Whatman GF/B glass fiber filters using a Brandel 48 well cell harvester (Brandel, Gaithersburg, Md.). […] The filters were dissolved in 10 ml each of Cytoscint (Westchem Products, San Diego, Calif.) and radioactivity was measured by liquid scintillation spectrometry at a counting efficiency of 35-50%.

sigma receptor [2] = test: [3H]DTG displacement radioligand binding assay, guinea pig brain membranes
[3] = target: T1, sigma receptor from guinea pig brain (Cavia porcellus, UniProt Q60492); test: [3H]AZ-DTG binding and photoaffinity labeling of the sigma receptor; details: for effect on [3H]AZ-DTG labeling of the 29 kD polypeptide: 10 uM
T1 construct: from tissue; host or cells: guinea pig brain membranes
Description: (§1) The filters were then irradiated with long-wavelength UV light for a 15 minute period. Filter-bound proteins were solubilized with 50 mM Tris pH 7.4, 0.1% sodium dodecyl sulfate. Solubilized proteins were subjected to SDS-polyacrylamide gel electrophoresis.

[4] = system: social interaction of rats; test: rat social interaction test; format: in vivo, rat (male Hooded Lister); details: for time spent in social interaction: i.p., 10 min session, n=6, P<0.001
Description: A second preferred animal model is the rat social interaction test described by Jones, B. J. et al., supra, wherein the time that two mice spend in social interaction is quantified. […] Both the familiarity and the light level of the test arena may be manipulated. Undrugged rats show the highest level of social interaction when the test arena is familiar and is lit by low light. Social interaction declines if the arena is unfamiliar to the rats or is lit by bright light. Anxiolytic agents prevent this decline. The overall level of motor activity may also be measured to allow detection of drug effects specific to social behaviors.
Male Hooded Lister rats (Glaxo bred, 200-250 g), were housed 5 to a cage and were kept in the laboratory environment for at least a week before testing. Rats paired in the test were taken from separate cages.
The test arena consisted of an open-topped box, 62×62×33 cm with a 7×7 matrix of infra-red photocell beams in the walls, 2.5 cm from the floor.
Testing involved placing each member of a pair of rats in opposite comers of the arena and then leaving them undisturbed for 10 min. while recording their behavior remotely on videotape. The behavioral assessments were made subsequently from the recordings. The time spent in social interaction was measured and expressed as a cumulative total for the 10 min session. The behaviors that comprised social interaction were: following with contact, sniffing (but not sniffing of the hindquarters), crawling over and under, tumbling, boxing and grooming.

anxiety behavior of mice [5] = details: mouse, in vivo, ip, 10 mg/kg
anxiety behavior of mice [6] = test: black:white test box (light/dark exploration) of mice
[3H]MK-801 = [3H]MK-801 displacement binding; details: read-out: IC50 vs [3H]MK-801; Table II; ± s.e.m. (n)
sigma receptor [7] = target: sigma receptor (Cavia porcellus, UniProt Q60492); test: biochemical
[8] = system: rats trained to discriminate cyclazocine; details: same concentrations; Holtzman, private communication; cited from earlier work
PCP receptor = details: Tam, personal communication; cited from earlier work
[9] = target: sigma receptor from guinea pig brain; test: [3H]AZ-DTG binding and photoaffinity labeling of the sigma receptor; details: in the dark; brain membranes
Description: as §1

sigma receptor [10] = test: [3H]DTG saturation binding / binding characteristics, guinea pig brain membranes; details: for binding to sigma receptor sites (words): guinea pig brain membrane homogenates and slide-mounted rat and guinea pig brain sections
Description: Values obtained were the mean of quadruplicate determinations.
Frozen guinea pig brains (Pel-Freeze, Rogers, Ariz.) were homogenized in 10 volumes (w/v) of 0.32M sucrose using a Polytron homogenizer. The homogenate was spun at 900×g for 10 minutes at 4° C. The supernatant was collected, and spun at 22,000×g for 20 minutes at 4° C. The pellet was resuspended in 10 volumes of 50 mM Tris/HCl buffer, pH 7.4, incubated at 37° C. for 30 minutes and spun again at 22,000×g for 20 minutes at 4° C. The pellet was then resuspended in 10 volumes of 50 mM Tris/HCl buffer, pH 7.4 and 10 ml aliquots of this membrane suspension were stored frozen at -70° C. until used in the binding assay.
For radioreceptor assays aliquots of the frozen membrane suspension were thawed and diluted tenfold with […] Tris/HCl buffer, pH 7.4. […] The protein concentration in the 1 ml final incubation volume was 800 ug, corresponding to 32 mg of brain tissue (original wet weight). […] After incubation for 90 minutes at room temperature the membrane suspension was rapidly filtered under vacuum through Whatman GF/B glass fiber filters using a Brandel 48 well cell harvester (Brandel, Gaithersburg, Md.). The filters were washed with 3×5 ml ice-cold […] Tris buffer (pH 7.4 at room temperature). The filters were dissolved in 10 ml each of Cytoscint (Westchem Products, San Diego, Calif.) and radioactivity was measured by liquid scintillation spectrometry at a counting efficiency of 35-50%. Saturation data were evaluated by Scatchard analysis using both the EBDA NcPherson, G. A., Computer Programs Biomed.

[11] = system: sigma site in brain sections; test: receptor autoradiography of [3H]DTG binding, brain sections; design: species or system guinea pig and rat; details: 2 nM [3H]DTG
Description: Male Sprague Dawley rats (200-250 g) and NIH guinea pigs (300-350 g) were sacrificed, their brains rapidly removed and processed for receptor autoradiography according to the method of Herkenham et al. J. Neuroscience 2:1129-1149 (1982).
Incubations were terminated by 4×2 minute washes in […] Tris-HCl (pH 7.4, 4° C.) with 1 mg/ml BSA, rapidly dried under a stream of cool air and placed in x-ray cassettes with ^3 H-sensitive film (^3 H-ultrofilm, LKB). Films were developed 6-8 weeks later (D-19, Kodak).

[12] = list of especially preferred compounds, read-out: IC50 (high binding to the sigma receptor)
[13] = read-out: IC50 vs [3H]DTG, Table II, ± s.e.m. (n)
[14] = Example 25, guinea pig brain membrane homogenates, read-out: IC50 binding values

T1 sequence (Q60492 whole entry): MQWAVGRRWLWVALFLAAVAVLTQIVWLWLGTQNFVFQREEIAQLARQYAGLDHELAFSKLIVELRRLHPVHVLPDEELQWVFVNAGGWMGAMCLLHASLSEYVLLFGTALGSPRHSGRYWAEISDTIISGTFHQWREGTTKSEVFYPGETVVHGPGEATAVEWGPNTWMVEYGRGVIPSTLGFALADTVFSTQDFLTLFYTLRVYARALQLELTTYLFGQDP
sigma receptor (Cavia porcellus, UniProt Q60492), sequence (Q60492 whole entry): as above

## CCCN1CCC[C@H](c2cccc(O)c2)C1 [(+)[^3 H]3-PPP, (+)[^3 H]3-(3-hydroxyphenyl)-N-(1-propyl)-piperidine]
Sigma receptor [1]
  Bmax: 80 pmol/g fresh brain weight
  Kd: 30 nM

## NCCCC(=O)O [GABA, γ-aminobutyric acid, reference compound]
Sigma receptor [2]; 10 uM
  displacement of [3H]DTG: no significant displacement
[3]
  effect on [3H]AZ-DTG labeling of the 29 kD polypeptide: unaffected

## CN1C(=O)CN=C(c2ccccc2)c2cc(Cl)ccc21 [diazepam, reference compound]
Sigma receptor [2]
  displacement of [3H]DTG: no significant displacement
[4]
  time spent in social interaction: significantly increased social interactions
Anxiety behavior of mice [5]
  sedation: numbers of rears and line crossings: decreased significantly showing that the drug was markedly sedative
Anxiety behavior of mice [6]; mouse, in vivo, ip
  numbers of line crossings and/or rears in the light compartment: increased at the expense of those in the dark compartment
  proportion of time in light area / percentage of time in black compartment: dose-dependently increased the proportion of time the mice spent in the larger, lighted area

## N=C(Nc1ccc2oc(=O)ccc2c1)NC12CC3CC(CC(C3)C1)C2 [N-(Adamantan-1-yl)-N'-(6-coumarinyl)-guanidine]
Sigma receptor [2]; [12]
  IC50: 21.9 nM
Sigma receptor [2]; [13]
  IC50: 21.9 nM
[3H]MK-801
  IC50: > 10000 nM

## CCCN1CCCC(c2cccc(O)c2)C1 (single isomer, unassigned; (+)) [(+)3-PPP, 3-(3-hydroxyphenyl)-N-(1-propyl)-piperidine, reference compound]
[3]
  effect on [3H]AZ-DTG labeling of the 29 kD polypeptide: completely blocked
Sigma receptor [7]
  IC50: 33 ± 12 nM

## N=C(Nc1cccc2ccc(=O)oc12)NC12CC3CC(CC(C3)C1)C2 [N-(Adamantan-1-yl)-N'-(8-coumarinyl)-guanidine]
Sigma receptor [2]; [13]
  IC50: 43.9 nM
[3H]MK-801
  IC50: 6700 nM

## N=C(Nc1ccccc1C(F)(F)F)NC12CC3CC(CC(C3)C1)C2 [N-(Adamantan-1-yl)-N'-(2-trifluoromethylphenyl)guanidine]
Sigma receptor [2]; [12]
  IC50: 7.44 nM
Sigma receptor [2]; [13]
  IC50: 7.44 nM
[3H]MK-801
  IC50: 23100 nM

## N=C(Nc1cccc2c1CCC2)Nc1cccc2c1CCC2 [N,N'-Di-(4-indanyl)-guanidine]
Sigma receptor [2]; [12]
  IC50: 28.5 nM
Sigma receptor [2]; [13]
  IC50: 28.5 nM
[3H]MK-801
  IC50: 506 nM

## N=C(Nc1ccccc1)Nc1ccccc1 [DPG, N,N'-di(phenyl)guanidine]
[8]
  substitution for cyclazocine: fully substitutable for cyclazocine

## N=C(Nc1ccccc1I)Nc1cccc2ccccc12 [N-(1-Naphthyl)-N'-(2-iodophenyl)-guanidine]
Sigma receptor [2]; [12]
  IC50: 40.1 nM
Sigma receptor [2]; [13]
  IC50: 40.1 nM
[3H]MK-801
  IC50: 209 nM

## Cc1ccccc1NC(=N)Nc1ccccc1C [DTG, N,N'-di-(2-methylphenyl)guanidine]
Sigma receptor [2]
  in vitro [3H]DTG displacement activity: found to possess the aforesaid in vitro [^3 H]DTG displacement activity
[8]
  substitution for cyclazocine: fully substitutable for cyclazocine
PCP receptor
  activity in [3H]-PCP binding assay: virtually inactive
Anxiety behavior of mice [6]; s.c.
  anxiolytic activity: does not exhibit anxiolytic activity
Anxiety behavior of mice [6]; s.c., concentrations tested
  rears, crossings, % time in the black compartment: did not affect significantly

## NCCc1ccc(O)c(O)c1 [dopamine, reference compound]
Sigma receptor [2]
  displacement of [3H]DTG: no significant displacement
[3]
  effect on [3H]AZ-DTG labeling of the 29 kD polypeptide: unaffected

## NCCc1c[nH]c2ccc(O)cc12 [5-OH-tryptamine, reference compound]
Sigma receptor [2]; 10 uM
  displacement of [3H]DTG: no significant displacement
[3]
  effect on [3H]AZ-DTG labeling of the 29 kD polypeptide: unaffected

## Cc1ccccc1NC(=N)Nc1ccc(N=[N+]=[N-])cc1C [[^3 H]AZ--DTG, [^3 H]-m-azido-1,3-di-o-tolylguanidine]
[3]; fluorography of SDS-PAGE gels after UV irradiation
  size of polypeptide selectively labeled: 29 kD
[9]
  Kd: 28 nM

## Cc1cc(Br)ccc1NC(=N)NC1CCCCC1 [N-Cyclohexyl-N'-(2-methyl-4-bromophenyl)guanidine]
Sigma receptor [2]
  in vitro [3H]DTG displacement activity: found to possess the aforesaid in vitro [^3 H]DTG displacement activity
Sigma receptor [2]; [14]
  IC50: 5.5 nM
Sigma receptor [2]; [12]
  IC50: 5.5 nM
Sigma receptor [2]; [13]
  IC50: 4.67 nM
[3H]MK-801
  IC50: 23900 nM

## Cc1ccccc1NC(=N)NC12CC3CC(CC(C3)C1)C2 [AdTG, N-(Adamantan-1-yl)-N'-(2-methylphenyl)guanidine]
Sigma receptor [2]
  in vitro [3H]DTG displacement activity: found to possess the aforesaid in vitro [^3 H]DTG displacement activity
Sigma receptor [2]; [14]
  IC50: 7.6 ± 0.3 nM
Sigma receptor [2]; [12]
  IC50: 7.6 nM
Sigma receptor [2]; read-out: IC50, [3H]DTG displacement in guinea-pig brain homogenates, most potent, n=6
  IC50: 2.6 ± 0.6 nM
Sigma receptor [2]; read-out: IC50 vs [3H]DTG, Table I, guinea pig brain membranes
  IC50: 3 ± 1 nM
[4]; 0.1 mg/kg vs 1 mg/kg diazepam
  dose giving about the same result, relative to diazepam: about the same result at one-tenth the dose of diazepam
[4]
  time spent in social interaction: significantly increased social interactions
Anxiety behavior of mice [6]; oral
  numbers of line crossings and/or rears in the light compartment (vs dark): increased at the expense of those in the dark compartment
  proportion of time in light area / percentage of time in black compartment: increased significantly the proportion of time the mice spent in the larger, lighted area
Anxiety behavior of mice [6]; oral, 1 mg/kg
  anxiolytic activity: have anxiolytic activity when orally administered
Anxiety behavior of mice [6]; s.c.
  latency to entering the dark compartment: increased in a dose-dependent manner
  numbers of line crossings and/or rears in the light compartment (vs dark): increased at the expense of those in the dark compartment
  proportion of time spent in the lighted area: dose dependently increased the proportion of time the mice spent in the larger, lighted area
  sedation: total numbers of rears and line crossings: did not decrease significantly showing that the drug was not sedative at this level

## CCCN1CCC[C@@H](c2cccc(O)c2)C1 [(-)3-PPP, reference compound]
Sigma receptor [2]; [14]
  IC50: 280 ± 21 nM
Sigma receptor [2]; read-out: IC50 vs. [3H]DTG, Table III, ± SEM, average from 2-4 separate experiments in triplicate
  IC50: 280 ± 21 nM
Sigma receptor [7]
  IC50: 235 nM

## N=C(Nc1ccc(F)cc1F)NC12CC3CC(CC(C3)C1)C2 [N-(Adamantan-1-yl)-N'-(2,4-difluorophenyl)guanidine]
Sigma receptor [2]; [12]
  IC50: 8.92 nM
Sigma receptor [2]; [13]
  IC50: 8.92 nM
[3H]MK-801
  IC50: > 10000 nM

## [3H]c1ccc(NC(=N)Nc2ccc([3H])cc2C)c(C)c1 [[^3 H]DTG, N,N'-di-(4-[^3 H]-2-methylphenyl)-guanidine]
Sigma receptor [2]
  specific binding of total [3H]DTG binding: > 90%
Sigma receptor [10]
  specific binding, % of total binding: 90-97%
  binding to sigma receptor sites (words): binds specifically and with high affinity to a single class of binding sites; also recorded: bound specifically, saturably, reversibly, and with high affinity
Sigma receptor [10]; 0.9 nM [3H]DTG
  total binding: 2700 cpm
Sigma receptor [10]; 0.9 nM [3H]DTG, 10 uM DTG or 10 uM haloperidol
  nonspecific binding: 50-150 cpm
Sigma receptor [10]; 100° C. for 10 minutes prior to assay
  abolition of specific binding by boiling of membranes: 90%
Sigma receptor [10]; after addition of 10 uM unlabeled DTG
  reversibility of binding: fully reversible
Sigma receptor [10]; listed as [^3 H]--DTG
  binding to sigma receptor sites (words): binds reversibly, saturably, selectively and with high affinity
Sigma receptor [10]; original wet weight
  maximum number of binding sites (Bmax): 85 pmol/g brain tissue
Sigma receptor [10]; room temperature
  time to binding equilibrium: 60 to 90 min
[11]
  distribution/density of [3H]DTG binding: low density of specific binding diffusely distributed throughout the gray matter; also recorded: heterogeneous distribution of enriched binding in limbic and sensorimotor structures; also recorded: Very dense binding was seen in the choroid plexus; also recorded: very dense binding was found in the subcommissural organ; also recorded: The oculomotor nucleus, and more caudally, the trochlear nucleus were very densely labeled; also recorded: In the hindbrain the locus coeruleus was the most densely labeled nucleus

## N=C(Nc1ccc(F)cc1C(F)(F)F)NC12CC3CC(CC(C3)C1)C2 [N-(Adamantan-1-yl)-N'-(2-trifluoromethyl-4-fluorophenyl)guanidine]
Sigma receptor [2]; [12]
  IC50: 4 nM
Sigma receptor [2]; [13]
  IC50: 4.27 nM
[3H]MK-801
  IC50: 31900 nM

From patent publication US5574070A, “Substituted guanidines having high binding to the sigma receptor and the use thereof” (priority 1993, dated 1996)
